Measured values reported in article PMC4506051, “Pharmacokinetic Profiles of Active Ingredients and Its Metabolites Derived from Rikkunshito, a Ghrelin Enhancer, in Healthy Japanese Volunteers: A Cross-Over, Randomized Study” (PLoS ONE, 2015).

Assays:
[1] = Stability of ingredients in gastric pH solution (pH 1.2, 37°C); assay type: physicochemical
Experimental: Rikkunshito gradually dissolved in acidic solution (pH 1.2) at 37°C, and the concentration of atractylodin after adding 0.25, 0.5, 1, and 2 h was measured by gas chromatography–mass spectrometry.

[2] = Exploratory trial: amount of rikkunshito ingredients in urine; assay type: in vivo, human
Experimental: (§1) In the first exploratory trial, 20-mL blood samples were collected from the cutaneous vein in the subjects’ forearm via a blood sampling tube that contained heparin at 0 (preadministration), 0.5, 1, 2, 4, and 8 h after a single oral administration of rikkunshito (Lot E24652). The dose of rikkunshito used in this trial was 7.5 g/day, which is the clinical daily dose, to widely explore rikkunshito-derived ingredients that enter the blood. Along with plasma, urine samples were collected at three points: between dinner and bedtime (preadministration), between 0 and 4 h after administration, and between 4 and 8 h after administration. The blood was immediately centrifuged at 1700 ×g for 10 min to obtain plasma. Plasma and urine fractions were stored at −80°C or lower until analysis.
(§2) For quantification of synephrine, 5 µL of standard solution or methanol was added to 100 µL plasma or urine samples followed by mixing. Ten microliters of erythromycin [internal standard (IS)] solution was added to the solutions followed by mixing and centrifugation (20,400 ×g, 5 min, 4°C). The supernatants were loaded onto an Ostro 96-well plate (Waters) and centrifuged (1500 ×g, 3 min, 4°C) followed by injection into the LC–MS/MS.
(§3) For quantification of 30 ingredients other than atractylodin and synephrine, 25 µL of standard solution or methanol was added to 500 µL plasma or urine samples followed by mixing. Atractylenolide III or digoxin (IS) solution (50 μL) was added to the solutions followed by mixing. For urine, 400 µL of blank plasma was added to the solutions. Ammonium acetate solution (100 mM, 100 or 400 µL) was added to the solutions followed by mixing. For enzymatic treatment, plasma and urine samples were incubated with β-glucuronidase (100 units in 100 mM ammonium acetate) for 2 h at 37°C. A solid-phase cartridge (OASIS HLB, 30 mg/1cc, Waters) was conditioned with methanol and 10 mM ammonium acetate solution, and the samples were loaded onto the cartridge. The cartridge was washed water : methanol (9:1, v/v), and 1.5 mL of methanol and 30 µL of propylene glycol were added to the cartridge to elute the analytes. The mixtures were dried at 25°C under a stream of nitrogen gas. Furthermore, 100 μL of 10 mM ammonium acetate : methanol (8:2, v/v) was added to the dried samples followed by mixing and sonication. The solutions were filtered (0.22 µm) and followed by injection into the LC–MS/MS system. […] Those analytical conditions are summarized in S2 Table and S3 Table.

[3] = Exploratory trial: plasma concentration of rikkunshito ingredients after single oral rikkunshito 7.5 g; assay type: in vivo; settings: for Plasma concentration, 0 h: 0 h (preadministration), single oral rikkunshito 7.5 g; for Plasma concentration, 4 h: 4 h after single oral rikkunshito 7.5 g; for Plasma concentration, 8 h: 8 h after single oral rikkunshito 7.5 g
Experimental: A random sequence was generated using a computer. The safety endpoint was evaluated in all volunteers.
as §1, §2, §3

[4] = Exploratory trial: ingredients in β-glucuronidase (enzyme)-treated plasma; assay type: in vivo, human; settings: β-glucuronidase-treated, rikkunshito 7.5 g, mean ± S.D., n = 4
Experimental: as §1, §3

[5] = Exploratory trial: ingredients in β-glucuronidase (enzyme)-treated urine; assay type: in vivo, human
Experimental: as §1, §3

[6] = Method validation: stability in standard, stock and working solution; settings: IS 2000 ng/mL
[7] = rikkunshito in acidic solution (pH 1.2) at 37°C, 0.5 h
[8] = rikkunshito in acidic solution (pH 1.2) at 37°C, 1 h
[9] = rikkunshito in acidic solution (pH 1.2) at 37°C, 2 h
[10] = 0–4 h after single oral rikkunshito 7.5 g, mean ± S.D., n = 4
[11] = 4–8 h after single oral rikkunshito 7.5 g, mean ± S.D., n = 4
[12] = preadministration (between dinner and bedtime), mean ± S.D., n = 4
[13] = β-glucuronidase-treated, 0–4 h after rikkunshito 7.5 g, mean ± S.D., n = 4
[14] = β-glucuronidase-treated, 4–8 h after rikkunshito 7.5 g, mean ± S.D., n = 4
[15] = β-glucuronidase-treated, preadministration, mean ± S.D., n = 4

SMILES: CC(C)=CCC[C@](C)(O)[C@H]1CC[C@]2(C)[C@@H]1[C@H](O)C[C@@H]1[C@@]3(C)CC[C@H](O)C(C)(C)[C@@H]3[C@@H](O[C@@H]3O[C@H](CO)[C@@H](O)[C@H](O)[C@H]3O[C@@H]3O[C@H](CO)[C@@H](O)[C@H](O)[C@H]3O)C[C@]12C [Ginsenoside Rf]
- Stability in gastric pH solution, Quantitative value [1, 7]: 190 ng/mL
- Stability in gastric pH solution, Quantitative value [1, 8]: 159 ng/mL
- Stability in gastric pH solution, Quantitative value [1, 9]: 113 ng/mL
- Amount in urine, 0–4 h [2, 10]: 48.2 ± 64.4 ng
- Amount in urine, 4–8 h [2, 11]: 23.0 ± 20.4 ng
- Amount in urine, Pre [2, 12]: BQL

SMILES: CC(C)=CCC[C@](C)(O[C@@H]1O[C@H](CO)[C@@H](O)[C@H](O)[C@H]1O)[C@H]1CC[C@]2(C)[C@@H]1[C@H](O)C[C@@H]1[C@@]3(C)CC[C@H](O)C(C)(C)[C@@H]3[C@@H](O[C@@H]3O[C@H](CO)[C@@H](O)[C@H](O)[C@H]3O)C[C@]12C [Ginsenoside Rg1]
- Stability in gastric pH solution, Quantitative value ([1]; 0.5 h, pH 1.2): 174 ng/mL
- Stability in gastric pH solution, Quantitative value ([1]; 1 h, pH 1.2): 118 ng/mL
- Stability in gastric pH solution, Quantitative value ([1]; 2 h, pH 1.2): 41.6 ng/mL
- Amount in urine, 0–4 h [2, 10]: 620 ± 331 ng
- Amount in urine, 4–8 h [2, 11]: 638 ± 319 ng
- Amount in urine, Pre [2, 12]: BQL

SMILES: COc1c(CC=C(C)C)c(O)cc2oc(=O)c(-c3ccc(O)cc3O)cc12 [Glycycoumarin]
- Stability in gastric pH solution, Quantitative value ([1]; 0.5 h, pH 1.2): 5.58 ng/mL
- Stability in gastric pH solution, Quantitative value ([1]; 1 h, pH 1.2): 7.09 ng/mL
- Stability in gastric pH solution, Quantitative value ([1]; 2 h, pH 1.2): 5.09 ng/mL
- Plasma concentration, 0 h ([3]; mean ± S.D., n = 4): BQL
- Plasma concentration, 4 h ([3]; mean ± S.D., n = 4): BQL
- Plasma concentration, 8 h ([3]; mean ± S.D., n = 4): BQL
- Plasma concentration of unchanged form before enzyme treatment ([3]; detected in only one subject, at any time point): approximately 30 pg/ml
- concentration at 0.5 h ([3]; human, plasma, 0.5 h after single oral rikkunshito 7.5 g, mean ± S.D., n = 4, read-out: Plasma concentration, 0.5 h): 0.00923 ± 0.0185 ng/mL
- concentration at 1 h ([3]; human, plasma, 1 h after single oral rikkunshito 7.5 g, mean ± S.D., n = 4): 0.00715 ± 0.0143 ng/mL
- concentration at 2 h ([3]; human, plasma, 2 h after single oral rikkunshito 7.5 g, mean ± S.D., n = 4, read-out: Plasma concentration, 2 h): 0.00693 ± 0.0139 ng/mL
- concentration at 0.5 h ([4]; human, plasma, oral, 0.5 h): 2.34 ng/mL
- concentration at 1 h ([4]; human, plasma, oral, 1 h): 0.987 ± 0.36 ng/mL
- concentration at 2 h ([4]; human, plasma, oral, 2 h, read-out: Plasma concentration in enzyme-treated plasma, 2 h): 0.328 ± 0.183 ng/mL
- concentration at 4 h ([4]; human, plasma, oral, 4 h, read-out: Plasma concentration in enzyme-treated plasma, 4 h): 0.371 ± 0.113 ng/mL
- concentration at 8 h ([4]; human, plasma, oral, 8 h, read-out: Plasma concentration in enzyme-treated plasma, 8 h): 0.222 ± 0.134 ng/mL
- Plasma concentration in enzyme-treated plasma, 0 h ([4]; 0 h (preadministration)): BQL
- Plasma concentration in enzyme-treated plasma, 0.5 h ([4]; 0.5 h): 2.34 ± 0.848 ng/mL
- Amount in enzyme-treated urine, 0–4 h [5, 13]: 7010 ± 2840 ng
- Amount in enzyme-treated urine, 4–8 h [5, 14]: 3260 ± 1580 ng
- Amount in enzyme-treated urine, Pre [5, 15]: 22.8 ± 19.7 ng
- Amount in urine, 0–4 h [2, 10]: 2300 ± 1150 ng
- Amount in urine, 4–8 h [2, 11]: 1600 ± 886 ng
- Amount in urine, Pre [2, 12]: 4.61 ± 4.20 ng

SMILES: C=C1CCC[C@]2(C)C[C@]3(O)OC(=O)C(C)=C3C[C@@H]12 [IS, Atractylenolide III, reference compound]
- Short-term stability of standard solution, RR ([6]; at room temperature for 24 h): IS: 100.0%
- Long-term stability of standard solution, RR ([6]; refrigerator (0.5°C to 7.4°C) for 4 weeks): IS: 93.4%

SMILES: CNCC(O)c1ccc(O)cc1 (stereo not shown) [Synephrine]
- Stability in gastric pH solution, Quantitative value [1, 7]: 3200 ng/mL
- Stability in gastric pH solution, Quantitative value [1, 8]: 3180 ng/mL
- Stability in gastric pH solution, Quantitative value [1, 9]: 2960 ng/mL
- Plasma concentration, 0 h ([3]; mean ± S.D., n = 4): BQL
- Plasma concentration, 0.5 h ([3]; 0.5 h after single oral rikkunshito 7.5 g, mean ± S.D., n = 4): 0.029 ± 0.058 ng/mL
- Plasma concentration, 1 h ([3]; 1 h after single oral rikkunshito 7.5 g, mean ± S.D., n = 4): BQL
- Plasma concentration, 2 h ([3]; 2 h after single oral rikkunshito 7.5 g, mean ± S.D., n = 4): BQL
- Plasma concentration, 4 h ([3]; mean ± S.D., n = 4): BQL
- Plasma concentration, 8 h ([3]; mean ± S.D., n = 4): BQL
- Amount in urine, 0–4 h [2, 10]: 2150 ± 296 ng
- Amount in urine, 4–8 h [2, 11]: 798 ± 282 ng
- Amount in urine, Pre [2, 12]: 24.2 ± 28.8 ng

SMILES: CCCCC[C@H](O)CC(=O)CCc1ccc(O)c(OC)c1 [[6]-Gingerol, [6]-Gingerol]
- Stability in gastric pH solution, Quantitative value ([1]; 0.5 h, pH 1.2): 152 ng/mL
- Stability in gastric pH solution, Quantitative value ([1]; 1 h, pH 1.2): 154 ng/mL
- Stability in gastric pH solution, Quantitative value ([1]; 2 h, pH 1.2): 149 ng/mL
- Amount in enzyme-treated urine, 0–4 h ([5]; human, in vivo): 8170 ± 5630 ng
- Amount in enzyme-treated urine, 4–8 h ([5]; human, in vivo): 821 ± 654 ng
- Amount in enzyme-treated urine, Pre ([5]; human, in vivo): 278 ± 261 ng
- Increase of urine concentration after β-glucuronidase treatment compared with before treatment ([5]; human, in vivo): more than 10 fold
- Amount in urine, Pre ([2]; human, in vivo): 18.6 ± 26.2 ng
- Amount in urine, 0–4 h ([2]; human, in vivo, po): 602 ± 552 ng
- Amount in urine, 4–8 h ([2]; human, in vivo, po): 35.0 ± 57.1 ng

SMILES: CCCCC/C=C/C(=O)CCc1ccc(O)c(OC)c1 [[6]-Shogaol, [6]-Shogaol]
- Stability in gastric pH solution, Quantitative value [1, 7]: 17.9 ng/mL
- Stability in gastric pH solution, Quantitative value [1, 8]: 18.5 ng/mL
- Stability in gastric pH solution, Quantitative value [1, 9]: 17.9 ng/mL
- Increase of urine concentration after β-glucuronidase treatment compared with before treatment ([5]; rikkunshito 7.5 g): more than 10 fold
- Amount in enzyme-treated urine, 0–4 h [5, 13]: 4980 ± 1480 ng
- Amount in enzyme-treated urine, 4–8 h [5, 14]: 392 ± 310 ng
- Amount in enzyme-treated urine, Pre [5, 15]: 109 ± 160 ng
- Amount in urine, 0–4 h [2, 10]: 459 ± 283 ng
- Amount in urine, 4–8 h [2, 11]: 15.4 ± 30.7 ng
- Amount in urine, Pre [2, 12]: 16.3 ± 26.4 ng

SMILES: CCCCCCC[C@H](O)CC(=O)CCc1ccc(O)c(OC)c1 [[8]-Gingerol, [8]-Gingerol]
- Amount in enzyme-treated urine, 0–4 h [5, 13]: 49.5 ± 78.3 ng
- Amount in enzyme-treated urine, 4–8 h [5, 14]: BQL
- Amount in enzyme-treated urine, Pre [5, 15]: 2.73 ± 5.46 ng
- Amount in urine, 0–4 h [2, 10]: 8.97 ± 17.9 ng
- Amount in urine, 4–8 h [2, 11]: BQL
- Amount in urine, Pre [2, 12]: BQL

SMILES: CCCCCCC/C=C/C(=O)CCc1ccc(O)c(OC)c1 [[8]-Shogaol, [8]-Shogaol]
- Stability in gastric pH solution, Quantitative value [1, 7]: 2.00 ng/mL
- Stability in gastric pH solution, Quantitative value [1, 8]: 1.89 ng/mL
- Stability in gastric pH solution, Quantitative value [1, 9]: 1.83 ng/mL
- Increase of urine concentration after β-glucuronidase treatment compared with before treatment ([5]; rikkunshito 7.5 g): more than 10 fold
- Amount in enzyme-treated urine, 0–4 h [5, 13]: 239 ± 62.5 ng
- Amount in enzyme-treated urine, 4–8 h [5, 14]: BQL
- Amount in enzyme-treated urine, Pre [5, 15]: 3.73 ± 7.46 ng
- Amount in urine, 0–4 h [2, 10]: 9.00 ± 18.0 ng
- Amount in urine, 4–8 h [2, 11]: BQL
- Amount in urine, Pre [2, 12]: BQL
